Measurements from patent publication US20020065219A1, “Water soluble thiazolyl peptide derivatives” (priority 2000, published 2002).
Converted amounts (≈) assume the structure as drawn. Read-outs that look alike come from different tables or passages of the source.

Key:
Test in all cases: MIC, broth micro dilution assay (NCCLS)
Assay type in all cases: cell-based
[1] = tested on: Staphylococcus aureus A15090; conditions: for MIC: Staphylococcus aureus, read-out: MIC (μg/mL) against Staphylococcus aureus A15090
[2] = tested on: Enterococcus faecalis A20688; conditions: for MIC: Enterococcus faecalis, read-out: MIC (μg/mL) against Enterococcus faecalis A20688
[3] = tested on: Streptococcus pneumoniae A28272; conditions: for MIC: Streptococcus pneumoniae, read-out: MIC (μg/mL) against Streptococcus pneumoniae A28272
[4] = Mueller-Hinton medium, 35° C., 18 hours
[5] = 50% Mueller-Hinton medium and 50% Todd Hewitt medium, 35° C., 18 hours

Row | Structure (SMILES) | MIC (μg/mL) against Staphylococcus aureus A15090 [1, 4] | MIC (μg/mL) against Enterococcus faecalis A20688 [2, 4] | MIC (μg/mL) against Streptococcus pneumoniae A28272 [3, 5] | other results
1 | CO/C(C)=C1/NC(=O)C(C(C)O)NC(=O)c2csc(n2)-c2cc(O)c(-c3nc(C(=O)NC(CSCC(=O)O)C(N)=O)cs3)nc2-c2csc(n2)C2COC(=O)c3c4c5c(cccc5n3O)COC(=O)C(O[C@H]3C[C@](C)(O)[C@H](N(C)C)[C@H](C)O3)C(OC4)C(NC(=O)c3csc1n3)c1nc(cs1)C(=O)N2 (stereo partly drawn) [Example 4] |  |  |  | MIC ([1]; A15090, 18 h): 2 µg/mL (≈ 1.31 µM); MIC ([2]; A20688, 18 h): 2 µg/mL (≈ 1.31 µM); MIC ([3]; A28272, 18 h): 0.125 µg/mL (≈ 0.0817 µM)
2 | CO/C(C)=C1/NC(=O)C(C(C)O)NC(=O)c2csc(n2)-c2cc(O)c(-c3nc(C(=O)NC(CNCCOCCOCCO)C(N)=O)cs3)nc2-c2csc(n2)C2COC(=O)c3c4c5c(cccc5n3O)COC(=O)C(O[C@H]3C[C@](C)(O)[C@H](N(C)C)[C@H](C)O3)C(OC4)C(NC(=O)c3csc1n3)c1nc(cs1)C(=O)N2 (stereo partly drawn) [Example 55] |  |  |  | MIC (μg/mL) against Staphylococcus aureus A15090 [1]: 0.25 µg/mL (≈ 0.158 µM); MIC (μg/mL) against Enterococcus faecalis A20688 [2]: 0.5 µg/mL (≈ 0.315 µM); MIC (μg/mL) against Streptococcus pneumoniae A28272 [3]: 0.06 µg/mL (≈ 0.0378 µM)
3 | COC(C)=C1NC(=O)C(C(C)O)NC(=O)c2csc(n2)-c2cc(O)c(-c3nc(C(=O)NC(CN(C)CCCNc4ccncc4)C(N)=O)cs3)nc2-c2csc(n2)C2COC(=O)c3c4c5c(cccc5n3O)COC(=O)C(OC3CC(C)(O)C(N(C)C)C(C)O3)C(OC4)C(NC(=O)c3csc1n3)c1nc(cs1)C(=O)N2 (stereo not drawn) [Example 83] | 1.0 µg/mL (≈ 0.624 µM) | 0.5 µg/mL (≈ 0.312 µM) | 0.25 µg/mL (≈ 0.156 µM) | 
4 | CO/C(C)=C1/NC(=O)C(C(C)O)NC(=O)c2csc(n2)-c2cc(O)c(-c3nc(C(=O)NC(CSCCc4nnn[nH]4)C(N)=O)cs3)nc2-c2csc(n2)C2COC(=O)c3c4c5c(cccc5n3O)COC(=O)C(O[C@H]3C[C@](C)(O)[C@H](N(C)C)[C@H](C)O3)C(OC4)C(NC(=O)c3csc1n3)c1nc(cs1)C(=O)N2 (stereo partly drawn) [Example 47] | 2.0 µg/mL (≈ 1.28 µM) | 32 µg/mL (≈ 20.4 µM) | 0.25 µg/mL (≈ 0.159 µM) | 
5 | CNCCN(C)CC(NC(=O)c1csc(-c2nc3c(cc2O)-c2nc(cs2)C(=O)NC(C(C)O)C(=O)N/C(=C(\C)OC)c2nc(cs2)C(=O)NC2c4nc(cs4)C(=O)NC(COC(=O)c4c5c6c(cccc6n4O)COC(=O)C(O[C@H]4C[C@](C)(O)[C@H](N(C)C)[C@H](C)O4)C2OC5)c2nc-3cs2)n1)C(N)=O (stereo partly drawn) [Example 23] | 0.06 µg/mL (≈ 0.0393 µM) | 0.5 µg/mL (≈ 0.328 µM) | 0.001 µg/mL (≈ 0.000655 µM) | 
6 | CCNCCN(CC)CC(NC(=O)c1csc(-c2nc3c(cc2O)-c2nc(cs2)C(=O)NC(C(C)O)C(=O)N/C(=C(\C)OC)c2nc(cs2)C(=O)NC2c4nc(cs4)C(=O)NC(COC(=O)c4c5c6c(cccc6n4O)COC(=O)C(O[C@H]4C[C@](C)(O)[C@H](N(C)C)[C@H](C)O4)C2OC5)c2nc-3cs2)n1)C(N)=O (stereo partly drawn) [Example 25] | 1.0 µg/mL (≈ 0.644 µM) | 2.0 µg/mL (≈ 1.29 µM) | 0.0005 µg/mL (≈ 0.000322 µM) | 
7 | CO/C(C)=C1/NC(=O)C(C(C)O)NC(=O)c2csc(n2)-c2cc(O)c(-c3nc(C(=O)NC(CS(=O)(=O)C4CN5CCC4CC5)C(N)=O)cs3)nc2-c2csc(n2)C2COC(=O)c3c4c5c(cccc5n3O)COC(=O)C(O[C@H]3C[C@](C)(O)C(N(C)C)[C@H](C)O3)C(OC4)C(NC(=O)c3csc1n3)c1nc(cs1)C(=O)N2 (stereo partly drawn) [Example 104] |  |  |  | MIC ([1]; A15090, 18 h): 0.5 µg/mL (≈ 0.31 µM); MIC ([2]; A20688, 18 h): 1 µg/mL (≈ 0.62 µM); MIC ([3]; A28272, 18 h): 0.06 µg/mL (≈ 0.0372 µM)
8 | CO/C(C)=C1/NC(=O)C(C(C)O)NC(=O)c2csc(n2)-c2cc(O)c(-c3nc(C(=O)NC(CN[C@@H](C)c4ccccc4)C(N)=O)cs3)nc2-c2csc(n2)C2COC(=O)c3c4c5c(cccc5n3O)COC(=O)C(O[C@H]3C[C@](C)(O)[C@H](N(C)C)[C@H](C)O3)C(OC4)C(NC(=O)c3csc1n3)c1nc(cs1)C(=O)N2 (stereo partly drawn) [Example 61] | 0.25 µg/mL (≈ 0.16 µM) | 0.25 µg/mL (≈ 0.16 µM) | 0.03 µg/mL (≈ 0.0192 µM) | 
9 | CO/C(C)=C1/NC(=O)C(C(C)O)NC(=O)c2csc(n2)-c2cc(O)c(-c3nc(C(=O)NC(CN4CCN(c5ncccn5)CC4)C(N)=O)cs3)nc2-c2csc(n2)C2COC(=O)c3c4c5c(cccc5n3O)COC(=O)C(O[C@H]3C[C@](C)(O)[C@H](N(C)C)[C@H](C)O3)C(OC4)C(NC(=O)c3csc1n3)c1nc(cs1)C(=O)N2 (stereo partly drawn) [Example 22] |  |  |  | MIC (μg/mL) against Staphylococcus aureus A15090 [1]: 0.5 µg/mL (≈ 0.312 µM); MIC (μg/mL) against Enterococcus faecalis A20688 [2]: 1.0 µg/mL (≈ 0.624 µM); MIC (μg/mL) against Streptococcus pneumoniae A28272 [3]: 0.0005 µg/mL (≈ 0.000312 µM)
10 | CO/C(C)=C1/NC(=O)C(C(C)O)NC(=O)c2csc(n2)-c2cc(O)c(-c3nc(C(=O)NC(CSCCC(=O)O)C(N)=O)cs3)nc2-c2csc(n2)C2COC(=O)c3c4c5c(cccc5n3O)COC(=O)C(O[C@H]3C[C@](C)(O)[C@H](N(C)C)[C@H](C)O3)C(OC4)C(NC(=O)c3csc1n3)c1nc(cs1)C(=O)N2 (stereo partly drawn) [Example 40] | 1.0 µg/mL (≈ 0.648 µM) | (4.0) μg/mL | 0.03 µg/mL (≈ 0.0194 µM) | 
11 | COC(C)=C1NC(=O)C(C(C)O)NC(=O)c2csc(n2)-c2cc(O)c(-c3nc(C(=O)NC(CN4CCCC4C(C)O)C(N)=O)cs3)nc2-c2csc(n2)C2COC(=O)c3c4c5c(cccc5n3O)COC(=O)C(OC3CC(C)(O)C(N(C)C)C(C)O3)C(OC4)C(NC(=O)c3csc1n3)c1nc(cs1)C(=O)N2 (stereo not drawn) [Example 86] | 0.007 µg/mL (≈ 0.00451 µM) | 0.06 µg/mL (≈ 0.0386 µM) | 0.015 µg/mL (≈ 0.00966 µM) | 
12 | COC[C@@H]1CCCN1CC(NC(=O)c1csc(-c2nc3c(cc2O)-c2nc(cs2)C(=O)NC(C(C)O)C(=O)N/C(=C(\C)OC)c2nc(cs2)C(=O)NC2c4nc(cs4)C(=O)NC(COC(=O)c4c5c6c(cccc6n4O)COC(=O)C(O[C@H]4C[C@](C)(O)[C@H](N(C)C)[C@H](C)O4)C2OC5)c2nc-3cs2)n1)C(N)=O (stereo partly drawn) [Example 63] | 0.125 µg/mL (≈ 0.0805 µM) | 0.25 µg/mL (≈ 0.161 µM) | 0.03 µg/mL (≈ 0.0193 µM) | 
13 | CO/C(C)=C1/NC(=O)C(C(C)O)NC(=O)c2csc(n2)-c2cc(O)c(-c3nc(C(=O)NC(CN4CCN(CCOCCO)CC4)C(N)=O)cs3)nc2-c2csc(n2)C2COC(=O)c3c4c5c(cccc5n3O)COC(=O)C(O[C@H]3C[C@](C)(O)[C@H](N(C)C)[C@H](C)O3)C(OC4)C(NC(=O)c3csc1n3)c1nc(cs1)C(=O)N2 (stereo partly drawn) [Example 49] | 0.5 µg/mL (≈ 0.31 µM) | 2.0 µg/mL (≈ 1.24 µM) | 0.5 µg/mL (≈ 0.31 µM) | 
14 | C/C=C1\NC(=O)C(C(C)O)NC(=O)c2csc(n2)-c2cc(O)c(-c3nc(C(=O)NC(CN(C)CCCn4ccnc4)C(N)=O)cs3)nc2-c2csc(n2)C2CSC(=O)c3[nH]c4cccc(c4c3C)COC(=O)C(O)CC(NC(=O)c3csc1n3)c1nc(cs1)C(=O)N2 (stereo not drawn) [Example 101] |  |  |  | MIC ([1]; A15090, Mueller-Hinton medium, 35° C., 18 hours): 0.125 µg/mL (≈ 0.0918 µM); MIC ([2]; A20688, Mueller-Hinton medium, 35° C., 18 hours): 0.125 µg/mL (≈ 0.0918 µM); MIC ([3]; A28272, 50% Mueller-Hinton medium and 50% Todd Hewitt medium, 35° C., 18 hours): 0.003 µg/mL (≈ 0.0022 µM)
15 | CO/C(C)=C1/NC(=O)C(C(C)O)NC(=O)c2csc(n2)-c2cc(O)c(-c3nc(C(=O)NC(CNCCN(CCN)CCN)C(N)=O)cs3)nc2-c2csc(n2)C2COC(=O)c3c4c5c(cccc5n3O)COC(=O)C(O[C@H]3C[C@](C)(O)[C@H](N(C)C)[C@H](C)O3)C(OC4)C(NC(=O)c3csc1n3)c1nc(cs1)C(=O)N2 (stereo partly drawn) [Example 12] | 2.0 µg/mL (≈ 1.26 µM) | 4.0 µg/mL (≈ 2.53 µM) | 0.5 µg/mL (≈ 0.316 µM) | 
16 | CO/C(C)=C1/NC(=O)C(C(C)O)NC(=O)c2csc(n2)-c2cc(O)c(-c3nc(C(=O)NC(CN(CCCN(C)C)CCCN(C)C)C(N)=O)cs3)nc2-c2csc(n2)C2COC(=O)c3c4c5c(cccc5n3O)COC(=O)C(O[C@H]3C[C@](C)(O)[C@H](N(C)C)[C@H](C)O3)C(OC4)C(NC(=O)c3csc1n3)c1nc(cs1)C(=O)N2 (stereo partly drawn) [Example 27] | 4.0 µg/mL (≈ 2.46 µM) | 2.0 µg/mL (≈ 1.23 µM) | 0.0005 µg/mL (≈ 0.000308 µM) | 
17 | CO/C(C)=C1/NC(=O)C(C(C)O)NC(=O)c2csc(n2)-c2cc(O)c(-c3nc(C(=O)NC(CN(C)CCN4CCCCC4)C(N)=O)cs3)nc2-c2csc(n2)C2COC(=O)c3c4c5c(cccc5n3O)COC(=O)C(O[C@H]3C[C@](C)(O)[C@H](N(C)C)[C@H](C)O3)C(OC4)C(NC(=O)c3csc1n3)c1nc(cs1)C(=O)N2 (stereo partly drawn) [Example 30] |  |  |  | MIC (μg/mL) against Staphylococcus aureus A15090 [1]: 0.125 µg/mL (≈ 0.0791 µM); MIC (μg/mL) against Enterococcus faecalis A20688 [2]: 1.0 µg/mL (≈ 0.633 µM); MIC (μg/mL) against Streptococcus pneumoniae A28272 [3]: 0.03 µg/mL (≈ 0.019 µM)
18 | CNCCNCC(NC(=O)c1csc(-c2nc3c(cc2O)-c2nc(cs2)C(=O)NC(C(C)O)C(=O)N/C(=C(\C)OC)c2nc(cs2)C(=O)NC2c4nc(cs4)C(=O)NC(COC(=O)c4c5c6c(cccc6n4O)COC(=O)C(O[C@H]4C[C@](C)(O)[C@H](N(C)C)[C@H](C)O4)C2OC5)c2nc-3cs2)n1)C(N)=O (stereo partly drawn) [Example 28] |  |  |  | MIC (μg/mL) against Staphylococcus aureus A15090 [1]: 0.25 µg/mL (≈ 0.165 µM); MIC (μg/mL) against Enterococcus faecalis A20688 [2]: 0.5 µg/mL (≈ 0.331 µM); MIC (μg/mL) against Streptococcus pneumoniae A28272 [3]: 0.03 µg/mL (≈ 0.0198 µM)
19 | COC(C)=C1NC(=O)C(C(C)O)NC(=O)c2csc(n2)-c2cc(O)c(-c3nc(C(=O)NC(CNC(CO)Cc4c[nH]cn4)C(N)=O)cs3)nc2-c2csc(n2)C2COC(=O)c3c4c5c(cccc5n3O)COC(=O)C(OC3CC(C)(O)C(N(C)C)C(C)O3)C(OC4)C(NC(=O)c3csc1n3)c1nc(cs1)C(=O)N2 (stereo not drawn) [Example 66] | 2.0 µg/mL (≈ 1.27 µM) | 16 µg/mL (≈ 10.1 µM) | 2.0 µg/mL (≈ 1.27 µM) | 
